Experimental data: patent US20250340574A1, “MODULATORS OF CYSTIC FIBROSIS TRANSMEMBRANE CONDUCTANCE REGULATOR” (Vertex Pharmaceuticals Incorporated, priority 2022, published 2025)
Read-outs that look alike come from different tables or passages of the source.

Columns and labels:
[1] = molecular target: T1, CFTR (F508del/MF-HBE cells) (Homo sapiens, UniProt P13569, DEL508-508); test: Ussing chamber assay of CFTR-mediated short-circuit currents, Assay C (0.026 μM to 25 μM, 6 concentrations); assay type: cell-based; conditions: with 33 nM potentiator and 18 μM Tezacaftor, 20% human serum; for Emax: read-out: C Max activity (%)
T1 construct: human bronchial epithelial (HBE) cells derived from CF subjects heterozygous for F508del and a minimal function CFTR mutation (F508del/MF-HBE); endogenous in cells; host or cells: Primary human bronchial epithelial cells from CF subjects (F508del/MF genotype), differentiated at an air-liquid interface
T1 sequence (P13569 with tags, fused parts or gaps DEL508-508): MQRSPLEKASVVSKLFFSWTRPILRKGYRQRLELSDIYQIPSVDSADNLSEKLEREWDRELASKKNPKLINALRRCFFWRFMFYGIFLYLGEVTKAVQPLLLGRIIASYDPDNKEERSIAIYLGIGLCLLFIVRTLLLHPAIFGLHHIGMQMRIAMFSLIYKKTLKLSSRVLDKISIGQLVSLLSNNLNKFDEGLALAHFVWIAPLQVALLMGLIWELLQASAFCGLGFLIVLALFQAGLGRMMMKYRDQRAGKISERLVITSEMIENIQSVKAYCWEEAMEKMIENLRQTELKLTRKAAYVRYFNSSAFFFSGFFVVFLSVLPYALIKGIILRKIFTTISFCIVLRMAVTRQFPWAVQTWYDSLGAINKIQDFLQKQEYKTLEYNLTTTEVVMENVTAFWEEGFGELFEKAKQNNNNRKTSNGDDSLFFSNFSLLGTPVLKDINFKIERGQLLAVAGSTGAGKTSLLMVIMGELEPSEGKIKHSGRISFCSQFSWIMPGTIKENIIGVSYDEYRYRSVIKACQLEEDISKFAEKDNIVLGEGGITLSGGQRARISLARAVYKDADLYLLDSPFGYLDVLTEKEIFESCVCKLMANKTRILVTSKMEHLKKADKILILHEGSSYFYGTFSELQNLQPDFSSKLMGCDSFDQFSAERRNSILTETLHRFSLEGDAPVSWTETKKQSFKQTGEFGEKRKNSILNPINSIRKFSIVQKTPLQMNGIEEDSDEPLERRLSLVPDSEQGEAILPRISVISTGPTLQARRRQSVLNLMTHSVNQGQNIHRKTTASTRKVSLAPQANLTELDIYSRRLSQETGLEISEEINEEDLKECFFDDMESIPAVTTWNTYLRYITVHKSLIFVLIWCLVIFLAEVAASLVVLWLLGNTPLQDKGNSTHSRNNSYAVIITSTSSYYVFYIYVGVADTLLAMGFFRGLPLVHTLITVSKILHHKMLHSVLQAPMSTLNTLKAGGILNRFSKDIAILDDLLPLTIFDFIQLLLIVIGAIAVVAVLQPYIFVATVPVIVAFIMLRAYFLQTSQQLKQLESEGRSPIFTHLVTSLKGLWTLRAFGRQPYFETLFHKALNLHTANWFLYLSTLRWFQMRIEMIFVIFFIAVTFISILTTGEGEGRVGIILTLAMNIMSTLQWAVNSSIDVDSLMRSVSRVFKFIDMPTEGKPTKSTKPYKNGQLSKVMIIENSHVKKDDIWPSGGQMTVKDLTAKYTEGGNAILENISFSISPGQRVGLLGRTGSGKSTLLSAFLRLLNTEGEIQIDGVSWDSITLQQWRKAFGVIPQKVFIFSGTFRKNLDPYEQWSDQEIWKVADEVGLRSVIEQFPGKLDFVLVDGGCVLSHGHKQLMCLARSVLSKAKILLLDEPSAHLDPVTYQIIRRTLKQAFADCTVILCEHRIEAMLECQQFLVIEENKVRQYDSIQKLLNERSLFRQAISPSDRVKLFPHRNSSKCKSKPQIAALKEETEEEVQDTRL
How it was run: (§1)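 F508del/MF-HBE cells grown at air-liquid interface were incubated 18-24 h at 37 °C in 20% human serum with correctors plus 18 μM tezacaftor and a fixed partner compound (33 nM for concentration series, 44 nM at 1 μM). ISC was read at 0 mV after 20 μM forskolin, minus the post-inhibitor current.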

[2] = molecular target: T1, CFTR (F508del/MF-HBE cells); test: Ussing chamber assay of CFTR-mediated short-circuit currents, Assay D (single concentration of 1 μM); assay type: cell-based; conditions: with 44 nM potentiator and 18 μM Tezacaftor, 20% human serum; for D activity at 1 μM (%): 18-24 hours
How it was run: as §1

| SMILES | Emax ([1]; 18-24 hours) [%] | EC50 [1] [nM] | D activity at 1 μM (%) [2] | Emax [1] [%] | D act. at 1 μM (%) [2] |
| --- | --- | --- | --- | --- | --- |
| Cc1cccc(C)c1-c1cc2nc(n1)NS(=O)(=O)c1cccc(c1)C(=O)N(Cc1cnc3oc(C)c(C4CC4)c3n1)[C@H](CC13CC(C1)C3)CO2 [Compound I-86] | > 60 | 1000 to 3000 | +++ (+++ is >60%) |  |  |
| Cc1cccc(CC2CCCC2)c1-c1nc2nc(c1C)OC[C@@H](CC(C)(C)C)N(Cc1cnc3oc(C4CC4)cc3n1)C(=O)c1cccc(c1)S(=O)(=O)N2 (atropisomer, axis not shown) [Compound I-195] | > 60 | < 1000 | +++ (+++ is >60%) |  |  |
| Cc1cccc(C)c1-c1nc2nc(c1C)OC[C@@H](CC(C)(C)C)N(Cc1cnc3oc(C(C)C)cc3n1)C(=O)c1cccc(c1)S(=O)(=O)N2 [Compound I-110] | > 60 | 1000 to 3000 | +++ (+++ is >60%) |  |  |
| COc1c2nc(nc1-c1c(C)cccc1C)NS(=O)(=O)c1cccc(c1)C(=O)N(Cc1cnc3cc(C(C)C)n(C)c3n1)[C@H](CC(C)(C)C)CC2 [Compound I-158] | > 60 | 1000 to 3000 | +++ (+++ is >60%) |  |  |
| CCC(C)(C)C[C@H]1COc2cc(-c3c(C)cccc3C)nc(n2)NS(=O)(=O)c2cccc(c2)C(=O)N1Cc1cnc2oc(C3CC3)cc2n1 [IV-34] |  | 1000 to 3000 |  | > 60 | +++ (+++ is >60%) |
| CCC(C)(C)C[C@H]1COc2cc(-c3c(C)cccc3C)nc(n2)NS(=O)(=O)c2cccc(c2)C(=O)N1Cc1cnc2oc(C(C)(C)C)cc2n1 [IV-37] |  | 1000 to 3000 |  | > 60 | +++ (+++ is >60%) |
| Cc1cccc(C)c1-c1cc2nc(n1)NS(=O)(=O)c1cccc(c1)C(=O)N(Cc1cnc3oc(C4(C)CC4)cc3n1)[C@@H](C(C(C)C)C(C)C)CO2 (stereo in doubt) [IV-31] |  | < 1000 |  | > 60 | +++ (+++ is >60%) |
| Cc1cccc(C)c1-c1nc2nc(c1C)OC[C@@H](CC13CC(C1)C3)N(Cc1cnc3oc(C4(C)CC4)cc3n1)C(=O)c1cccc(c1)S(=O)(=O)N2 [Compound I-231] | > 60 | < 1000 | +++ (+++ is >60%) |  |  |
| Cc1cccc(C)c1-c1nc2nc(c1C)OC[C@@H](CC13CC(C1)C3)N(Cc1cnc3cc(C4(C)CC4)n(C)c3n1)C(=O)c1cccc(c1)S(=O)(=O)N2 [Compound I-228] | > 60 | < 1000 | +++ (+++ is >60%) |  |  |
| Cc1cccc(COC(C)C)c1-c1nc2nc(c1C)OC[C@@H](CC(C)(C)C)N(Cc1cnc3oc(C4CC4)cc3n1)C(=O)c1cccc(c1)S(=O)(=O)N2 [IV-39] |  | 1000 to 3000 |  | > 60 | +++ (+++ is >60%) |
| Cc1cccc(C)c1-c1cc2nc(n1)NS(=O)(=O)c1cccc(c1)C(=O)N(Cc1cnc3oc(C(C)(C)C)cc3n1)[C@@H](C(C1CCC1)C1CCC1)CO2 [IV-33] |  | 3000 to 30000 |  | > 60 | +++ (+++ is >60%) |
| COc1c2nc(nc1-c1c(C)cccc1C)NS(=O)(=O)c1cccc(c1)C(=O)N(Cc1cnc3oc(C(C)(C)C)cc3n1)[C@H](CC1(C)CC1)CO2 [IV-12] |  | 1000 to 3000 |  | > 60 | +++ (+++ is >60%) |
| Cc1cccc(C)c1-c1cc2nc(n1)NS(=O)(=O)c1cccc(c1)C(=O)N(Cc1cnc3oc(C(C)(C)C)cc3n1)[C@@H](C(C(C)C)C(C)C)CO2 [IV-36] |  | < 1000 |  | > 60 | +++ (+++ is >60%) |
| Cc1cccc(C)c1-c1cc2nc(n1)NS(=O)(=O)c1cccc(c1)C(=O)N(Cc1ncc3cc(C(C)(C)C)n(C)c3n1)[C@H](CC(C)(C)C)CO2 [IV-38] |  | 1000 to 3000 |  | > 60 | +++ (+++ is >60%) |
| Cc1cccc(C2CC2)c1-c1nc2nc(c1C)OC[C@@H](CC(C)(C)C)N(Cc1cnc3oc(C4CC4)cc3n1)C(=O)c1cccc(c1)S(=O)(=O)N2 (atropisomer, axis not shown) [Compound I-152] | > 60 | < 1000 | +++ (+++ is >60%) |  |  |
| Cc1cccc(C)c1-c1cc2nc(n1)NS(=O)(=O)c1cccc(c1)C(=O)N(Cc1cnc3cc(C4CC4)n(C)c3n1)[C@@H](CCC1(C)CC1)CO2 (stereo in doubt) [Compound I-207] | > 60 | < 1000 | +++ (+++ is >60%) |  |  |
| Cc1cccc(C)c1-c1cc2nc(n1)NS(=O)(=O)c1cccc(c1)C(=O)N(Cc1cnc3oc(C4CCOCC4)cc3n1)[C@H](CC1(C)CC1)CO2 [IV-27] |  | 3000 to 30000 |  | > 60 | +++ (+++ is >60%) |
| Cc1cccc(CC(C)C)c1-c1nc2nc(c1C)OC[C@@H](CC(C)(C)C)N(Cc1cnc3nc(C(C)C)n(C)c3n1)C(=O)c1cccc(c1)S(=O)(=O)N2 (atropisomer, axis not shown) [Compound I-171] | > 60 | < 1000 | +++ (+++ is >60%) |  |  |
| Cc1cccc(CC(C)C)c1-c1nc2nc(c1C)OC[C@@H](CC1(C)CC1)N(Cc1cnc3cc(C(C)(C)C)n(C)c3n1)C(=O)c1cccc(c1)S(=O)(=O)N2 (atropisomer, axis not shown) [IV-44] |  | 1000 to 3000 |  | > 60 | +++ (+++ is >60%) |
| Cc1cccc(C)c1-c1cc2nc(n1)NS(=O)(=O)c1cccc(c1)C(=O)N(Cc1ncc3cc(C4CC4)n(C)c3n1)[C@H](CC1(C)CC1)CO2 [Compound I-263] | > 60 | 1000 to 3000 | +++ (+++ is >60%) |  |  |
| Cc1cccc(CC(C)C)c1-c1nc2nc(c1C)OC[C@@H](CC(C)(C)C)N(Cc1cnc3nc(C4CC4)n(C)c3n1)C(=O)c1cccc(c1)S(=O)(=O)N2 (atropisomer, axis not shown) [Compound I-170] | > 60 | < 1000 | +++ (+++ is >60%) |  |  |
| Cc1cccc(C)c1-c1nc2nc(c1C)OC[C@@H](C[C@H]1CCCCO1)N(Cc1cnc3cc(C4CC4)n(C)c3n1)C(=O)c1cccc(c1)S(=O)(=O)N2 [Compound I-193] | > 60 | < 1000 | +++ (+++ is >60%) |  |  |
| Cc1cccc(C)c1-c1cc2nc(n1)NS(=O)(=O)c1cccc(c1)C(=O)N(Cc1cnc3oc(C(C)(C)C)cc3n1)[C@H](CC(C)(C)C)CO2 [Compound I-218] | > 60 | < 1000 | +++ (+++ is >60%) |  |  |
| Cc1cccc(CC(C)C)c1-c1nc2nc(c1C)OC[C@@H](COC(C)C)N(Cc1cnc3cc(C(C)C)n(C)c3n1)C(=O)c1cccc(c1)S(=O)(=O)N2 (atropisomer, axis not shown) [Compound I-211] | > 60 | < 1000 | +++ (+++ is >60%) |  |  |
| Cc1cccc(CC(C)C)c1-c1nc2nc(c1C)OC[C@@H](CC1(C)CC1)N(Cc1cnc3oc(C(C)(C)C)cc3n1)C(=O)c1cccc(c1)S(=O)(=O)N2 (atropisomer, axis not shown) [IV-45] |  | 1000 to 3000 |  | > 60 | +++ (+++ is >60%) |
| Cc1cccc(C)c1-c1cc2nc(n1)NS(=O)(=O)c1cccc(c1)C(=O)N(Cc1cnc3cc(C4(C)CC4)n(C)c3n1)[C@@H](C(C1CCC1)C1CCC1)CO2 (single isomer, unassigned) [IV-20, 11-[di(cyclobutyl)methyl]-6-(2,6-dimethylphenyl)-12-[[5-methyl-6-(1-methylcyclopropyl)pyrrolo[2,3-b]pyrazin-3-yl]methyl]-2,2-dioxo-9-oxa-2λ^6-thia-3,5,12,19-tetrazatricyclo[12.3.1.14,8]nonadeca-1(18),4(19),5,7,14,16-hexaen-13-one] |  | < 1000 |  | > 60 | +++ (+++ is >60%) |
| Cc1cccc(CCC(C)C)c1-c1nc2nc(c1C)OC[C@@H](CC(C)(C)C)N(Cc1cnc3oc(C4CC4)cc3n1)C(=O)c1cccc(c1)S(=O)(=O)N2 (atropisomer, axis not shown) [Compound I-204] | > 60 | < 1000 | +++ (+++ is >60%) |  |  |
| Cc1cccc(C)c1-c1cc2nc(n1)NS(=O)(=O)c1cccc(c1)C(=O)N(Cc1cnc3cc(C4(C)CC4)n(C)c3n1)[C@H](COC(C)C)CO2 [Compound I-240] | > 60 | < 1000 | +++ (+++ is >60%) |  |  |
